# Measured values from patent US20080139607A1, “New Compounds” (ASTRAZENECA AB, priority 2006, published 2008).
# Biological target: Recombinant human PAI-1 (Homo sapiens, UniProt P05121)
# Test: Plasma clot lysis assay for testing of PAI-1 inhibitors (clot lysis in platelet-poor plasma)
# Type: biochemical
# Conditions: concentration at which clot lysis time is halved (pIC50=-log IC50); platelet-poor plasma 50%, PAI-1 10-13 ng/mL, t-PA 34 ng/mL, 37° C.
# Method: Plasma Clot Lysis Assay for Testing of PAI-1 Inhibitors
# CaCl2, p.a. Stock solution 0.1 M in water.
# PAI-1 inhibitors dissolved in 100% DMSO.
# Experimental Procedures—Clot Lysis in Platelet-Poor Plasma
# Blood from healthy fat-fasting volunteers was collected into 0.13 M trisodium citrate, 9 parts blood to 1 part anticoagulant. The tubes were centrifuged at 2000×g, 20 min, at RT. The supernatant, ie, the platelet poor plasma was pooled, aliquoted and frozen at −85° C. until used. At the day of experiment the plasma was thawed in a water bath and temperated to 37° C. All other constituents, except t-PA, were prewarmed to 37° C. To each well on a microtiter plate, 25 μL CaCl2, 25 μL PAI-1 or 25 μL PAI-1 vehicle, 20 μL saline and 5 μL drug or 5 μL vehicle (100% DMSO) were added. Plasma was mixed with cold t-PA solution in the relation 4 parts plasma with 1 part t-PA, just before adding 125 μL of this mixture to each well. The final concentration was 12.5 mM for CaCl2, 10-13 ng/mL for PAI-1, 34 ng/mL for t-PA, and the compounds were tested at a final concentration range 0.1 nM to 0.25 mM. The final plasma concentration was 50%, as a result of the different additives. The plate, covered with a plastic lid, was placed in a Microplate reader (Molecular Devices, US) and gently shaken. The change in turbidity was immediately monitored as a change in absorbance at 405 nm at 37° C. Data points were collected at intervals of 2 min, during a period of 10 h. After finished reading, the absorbance data were transformed into files containing the time and absorbance values for each well. The clot longevity, ie, the time the clot exists, was determined as the time between clot formation, ie, positive Vmax, and clot lysis, ie, negative Vmax. The effect of the drugs, ie, shortening of the longevity for the clot, was expressed as the concentration at which a halving of the clot lysis time was reached, the IC50 (pIC50=−log IC50). Control clot lysis time, set to 100%, was determined in the presence of PAI-1, and the maximal effect, ie, the shortest lysis time that can be reached under defined conditions in this system, in the absence of PAI-1 was set to 0%.
# Compounds having a pIC50 higher than 4 were considered as being active.
# Recombinant human PAI-1, sequence (P05121 24-402): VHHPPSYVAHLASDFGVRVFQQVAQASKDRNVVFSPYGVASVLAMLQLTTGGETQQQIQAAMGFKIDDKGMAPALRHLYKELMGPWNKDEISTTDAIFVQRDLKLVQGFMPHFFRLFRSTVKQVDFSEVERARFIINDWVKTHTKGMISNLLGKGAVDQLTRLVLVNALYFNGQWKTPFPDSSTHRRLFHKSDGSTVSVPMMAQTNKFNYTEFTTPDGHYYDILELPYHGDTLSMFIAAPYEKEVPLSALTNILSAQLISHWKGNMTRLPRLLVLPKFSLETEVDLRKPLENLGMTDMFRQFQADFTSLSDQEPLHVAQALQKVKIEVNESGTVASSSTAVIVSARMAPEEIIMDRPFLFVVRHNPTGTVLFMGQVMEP
row,IC50 [µM],Structure (SMILES)
1,12.6,"CCCCCCc1c(-c2cccc(C(F)(F)F)c2)c2n(c(=O)c1N)[C@H](C(=O)O)CS2 [Example 14, (3R)-6-Amino-7-hexyl-5-oxo-8-(3-trifluoromethyl-phenyl)-2,3-dihydro-5H-thiazolo[3,2-a]pyridine-3-carboxylic acid]"
2,2.51,"CCCCCCCc1cc(=O)n2c(c1-c1cccc(C(F)(F)F)c1)SC[C@H]2C(=O)NS(=O)(=O)c1ccccc1 [Example 8, (3R)—N-[7-Heptyl-5-oxo-8-(3-trifluoromethyl-phenyl)-2,3-dihydro-5H-thiazolo[3,2-a]pyridine-3-carbonyl]-benzenesulfonamide]"
3,25.1,"CCCCCCCc1cc(=O)n2c(c1-c1ccc(F)c(F)c1)SC[C@H]2c1nnn[nH]1 [Example 5, (3R)-8-(3,4-Difluoro-phenyl)-7-heptyl-3-(1H-tetrazol-5-yl)-2,3-dihydro-thiazolo[3,2-a]pyridin-5-one]"
4,20,"CCCCCCCc1c(-c2ccc(F)c(F)c2)c2n(c(=O)c1[N+](=O)[O-])[C@H](C(=O)O)CS2 [Example 17, (3R)-8-(3,4-Difluoro-phenyl)-7-heptyl-6-nitro-5-oxo-2,3-dihydro-5H-thiazolo[3,2-a]pyridine-3-carboxylic acid]"
5,10,"CCCCCCCc1cc(=O)n2c(c1-c1ccc(F)c(F)c1)SC[C@H]2C(=O)NS(C)(=O)=O [Example 2, (3R)—N-[8-(3,4-Difluoro-phenyl)-7-heptyl-5-oxo-2,3-dihydro-5H-thiazolo[3,2-a]pyridine-3-carbonyl]-methanesulfonamide]"
6,3.98,"CCCCCCCCc1cc(=O)n2c(c1-c1cccc(C(F)(F)F)c1)SC[C@H]2C(=O)O [Example 18, (3R)-7-octyl-5-oxo-8-[3-(trifluoromethyl)phenyl]-2,3-dihydro-5H-[1,3]thiazolo[3,2-a]pyridine-3-carboxylic acid]"
7,12.6,"CCCCCCCc1cc(=O)n([C@@H](C)C(=O)O)cc1-c1ccc(F)c(F)c1 [Example 3, (2S)-2-[5-(3,4-Difluoro-phenyl)-4-heptyl-2-oxo-2H-pyridin-1-yl]-propionic acid]"
8,39.8,"CCCCc1c(-c2cccc(C(F)(F)F)c2)c2n(c(=O)c1[N+](=O)[O-])[C@H](C(=O)O)CS2 [Example 15, (3R)-7-Butyl-6-nitro-5-oxo-8-(3-trifluoromethyl-phenyl)-2,3-dihydro-5H-thiazolo[3,2-a]pyridine-3-carboxylic acid]"
9,15.8,"CCCCCCCc1cc(=O)n2c(c1-c1ccc(F)c(F)c1)SC[C@H]2C(=O)O [Example 1, (3R)-8-(3,4-Difluoro-phenyl)-7-heptyl-5-oxo-2,3-dihydro-5H-thiazolo[3,2-a]pyridine-3-carboxylic acid]"
10,12.6,"CCCCCCCc1cc(=O)n2c(c1-c1cccc(C(F)(F)F)c1)SC[C@H]2C(=O)O [Example 7, (3R)-7-Heptyl-5-oxo-8-(3-trifluoromethyl-phenyl)-2,3-dihydro-5H-thiazolo[3,2-a]pyridine-3-carboxylic acid]"
11,10,"CCCCCCCc1cc(=O)n2c(C(=O)O)csc2c1-c1ccc(F)c(F)c1 [Example 23, 8-(3,4-difluorophenyl)-7-heptyl-5-oxo-5H-[1,3]thiazolo[3,2-a]pyridine-3-carboxylic acid]"
12,10,"CCCCCCCc1cc(=O)n2c(c1-c1cccs1)SC[C@H]2C(=O)O [Example 19, (3R)-7-heptyl-5-oxo-8-(2-thienyl)-2,3-dihydro-5H-[1,3]thiazolo[3,2-a]pyridine-3-carboxylic acid]"
13,12.6,"CCCCCCc1c(-c2cccc(C(F)(F)F)c2)c2n(c(=O)c1[N+](=O)[O-])[C@H](C(=O)O)CS2 [Example 12, (3R)-7-Hexyl-6-nitro-5-oxo-8-(3-trifluoromethyl-phenyl)-2,3-dihydro-5H-thiazolo[3,2-a]pyridine-3-carboxylic acid]"
14,39.8,"CCCCc1cc(=O)n2c(c1-c1cccc(C(F)(F)F)c1)SC[C@H]2C(=O)O [Example 9, (3R)-7-Butyl-5-oxo-8-(3-trifluoromethyl-phenyl)-2,3-dihydro-5H-thiazolo[3,2-a]pyridine-3-carboxylic acid]"
15,3.98,"CCCCCCCc1c(-c2cccc(C(F)(F)F)c2)c2n(c(=O)c1[N+](=O)[O-])[C@H](C(=O)O)CS2 [Example 10, (3R)-7-Heptyl-6-nitro-5-oxo-8-(3-trifluoromethyl-phenyl)-2,3-dihydro-5H-thiazolo[3,2-a]pyridine-3-carboxylic acid]"
16,20,"CCCCCCCc1c(-c2ccc(F)c(F)c2)c2n(c(=O)c1C(=O)O)[C@H](C(=O)OC)CS2 [Example 6, (3R)-8-(3,4-Difluoro-phenyl)-7-heptyl-5-oxo-2,3-dihydro-5H-thiazolo[3,2-a]pyridine-3,6-dicarboxylic acid 3-methyl ester]"
17,3.98,"CCCCCCCc1cc(=O)n2c(c1-c1ccc(F)c(F)c1)S[C@H](C)[C@H]2C(=O)O [Example 25, (2R,3R)-8-(3,4-difluorophenyl)-7-heptyl-2-methyl-5-oxo-2,3-dihydro-5H-[1,3]thiazolo[3,2-a]pyridine-3-carboxylic acid]"
18,79.4,"CC(C)CCc1c(-c2cccc(C(F)(F)F)c2)c2n(c(=O)c1N)[C@H](C(=O)O)CS2 [Example 16, (3R)-6-Amino-7-(3-methyl-butyl)-5-oxo-8-(3-trifluoromethyl-phenyl)-2,3-dihydro-5H-thiazolo[3,2-a]pyridine-3-carboxylic acid]"
19,10,"CCCCCCCc1cc(=O)n2c(c1-c1ccc(F)c(F)c1)S[C@H](OC)[C@H]2C(=O)O [Example 22, (2S,3R)-8-(3,4-difluorophenyl)-7-heptyl-2-methoxy-5-oxo-2,3-dihydro-5H-[1,3]thiazolo[3,2-a]pyridine-3-carboxylic acid]"
20,12.6,"CC(C)CCc1c(-c2cccc(C(F)(F)F)c2)c2n(c(=O)c1[N+](=O)[O-])[C@H](C(=O)O)CS2 [Example 13, (3R)-7-(3-methylbutyl)-6-nitro-5-oxo-8-(3-trifluoromethyl-phenyl)-2,3-dihydro-5H-thiazolo[3,2-a]pyridine-3-carboxylic acid]"
21,12.6,"O=C(O)[C@@H]1CSc2c(-c3ccccc3)c(CCCOc3ccc(Cl)cc3Cl)cc(=O)n21 [Example 21, (3R)-7-[3-(2,4-dichloro-phenoxy)-propyl]-5-oxo-8-phenyl-2,3-dihydro-51H-thiazolo[3,2-a]pyridine-3-carboxylic acid]"
22,50.1,"CCCCCCCc1cc(=O)n2c(c1-c1ccc(F)c(F)c1)SC[C@@H]2C(N)=O [Example 4, (3S)-8-(3,4-Difluoro-phenyl)-7-heptyl-5-oxo-2,3-dihydro-5H-thiazolo[3,2-a]pyridine-3-carboxylic acid amide]"
23,12.6,"CCCCCCCc1cc(=O)n2c(c1-c1c[nH]c3ccccc13)SC[C@H]2C(=O)O [Example 20, (3R)-7-heptyl-8-(1H-indol-3-yl)-5-oxo-2,3-dihydro-5H-[1,3]thiazolo[3,2-a]pyridine-3-carboxylic acid]"
24,10,"CCCCCCCc1cc(=O)n2c(c1-c1ccc(F)c(F)c1)SC[C@@H]2C(=O)O [Example 11, (3S)-8-(3,4-Difluoro-phenyl)-7-heptyl-5-oxo-2,3-dihydro-5H-thiazolo[3,2-a]pyridine-3-carboxylic acid]"
25,5.01,"CCCCCCCc1cc(=O)n2c(c1-c1ccc(F)c(F)c1)S[C@H](c1ccccc1)[C@H]2C(=O)O [Example 24, (2R,3R)-8-(3,4-difluorophenyl)-7-heptyl-5-oxo-2-phenyl-2,3-dihydro-5H-[1,3]thiazolo[3,2-a]pyridine-3-carboxylic acid]"
